The record followed here is patent US20230099031A1, “BIFUNCTIONAL AGENTS FOR PROTEIN RECRUITMENT AND/OR DEGRADATION” (Orionis Biosciences, Inc., priority 2019, published 2023).

One may read the IC50 as the concentration needed to halve the response being measured.

Type in all cases: cell-based
One experiment concerns the target T1, SALL4 (Homo sapiens, UniProt Q96SW2+Q9UJQ4).
T1 construct: Full size proteins are fused for each of the target proteins tested; expressed in transfected cells; host or cells: HEK293T
The experiment in a line: Recruitment Assay (MAPPIT-like): SALL4 recruitment, pSEL-SALL4+pMG1-CRBN. The following applies: recruitment of SALL4, protocol of Example 2; read-out: EC50_SALL4. The method, then: (§1) In this experimental set-up, cells are transfected with a construct encoding a CRBN-fusion protein and another one encoding a substrate-fusion protein. Test compound activity is assessed with increasing concentrations of test compounds (dose-response studies) to monitor the ability to promote CRBN-ligand-induced protein interaction.
(§2) Full size proteins are fused for each of the target proteins tested, except in the case of IKZF1 where isoform 7 is used, and BRD4, where isoform 3 is applied. For the study, the following construct combinations are used: IKZF1 recruitment: pSEL-CRBN+pMG1-IKZF1(isoform 7); ASS1 recruitment: pSEL-CRBN+pMG1-ASS1; SALL4 recruitment: pSEL-SALL4+pMG1-CRBN; DHFR recruitment: pCLG-DHFR+pMG1-CRBN; ESR1 recruitment: pSEL-CRBN+pMG1-ESR1; BRD4 recruitment: pSEL-CRBN+pMG1-BRD4(isoform 3). Cells are treated with erythropoietin (Epo; where pSEL-type receptor fusions constructs are used) or leptin (in the case pCLG-type receptor fusion constructs are applied) without or with the indicated dose of test compound at 24 hours after transfection. Luciferase activity is measured 24 hours after test compound treatment using the Luciferase Assay System kit (PROMEGA, Madison, Wis.) with an Ensight plate reader (PERKIN ELMER LIFE SCIENCES, Waltham, Mass.). Data points depict fold induction of the average luciferase activity of triplicate samples from Epo or leptin+test compound treated cells versus Epo or leptin only treated cells. Error bars represent standard deviations. Curves are fit using 4-parameter nonlinear regression in […] PRISM software.

The next experiment concerns the target T2, CRBN (Homo sapiens, UniProt Q96SW2).
T2 construct: expressed in transfected cells; host or cells: HEK293T
In words: Competition Assay: MAPPIT-like, competition with trimethoprim-lenalidomide hybrid ligand for binding to CRBN in HEK293T cells. The following applies: protocol and reagents of Example 1; read-out: IC50 Competition.

For the next experiment, the target named is T3, ASS1 (Homo sapiens, UniProt P00966+Q96SW2).
T3 construct: Full size proteins are fused for each of the target proteins tested; expressed in transfected cells; host or cells: HEK293T
In words: Recruitment Assay (MAPPIT-like): ASS1 recruitment, pSEL-CRBN+pMG1-ASS1. The following applies: recruitment of ASS1, protocol of Example 2. The method, then: as §1, §2

Structures are written as SMILES. A value given as a limit tells only on which side of the number the result lay.

For `CC(C)OC1c2ccccc2C(=O)N1C1CCC(=O)NC1=O` (centres unmarked) [3-(1-isopropoxy-3-oxo-isoindolin-2-yl)piperidine-2,6-dione], the EC50 at SALL4 is 2.7 µM. Further, at CRBN, the IC50 came to 22.9 µM.
As to `Cc1nc2ccc(C#N)c(N)c2c(=O)n1C1CCC(=O)NC1=O` (centres unmarked) [Compound C10001, 5-amino-3-(2,6-dioxo-3-piperidyl)-2-methyl-4-oxo-quinazoline-6-carbonitrile], on SALL4, the EC50 was 1.25 µM. In addition, the “EC50_ASS1 (M)” value at ASS1 is recorded as “>>”.
As to `O=C1CCC(N2C(=O)c3ccccc3C2NCc2ccccc2)C(=O)N1` (centres unmarked) [Compound C10239, 3-[1-(benzylamino)-3-oxo-isoindolin-2-yl]piperidine-2,6-dione], the EC50 on SALL4 is 1.16 µM.
On to `CN(C)C1c2ccccc2C(=O)N1C1CCC(=O)NC1=O` (centres unmarked) [Compound C10981, 3-[1-(dimethylamino)-3-oxo-isoindolin-2-yl]piperidine-2,6-dione], for which the EC50 at SALL4 turned out to be 1.46 µM. For the same molecule, at ASS1, the “EC50_ASS1 (M)” value is reported as “>>”. In addition, the concentration for half-maximal inhibition (IC50) on CRBN is 7.81 µM.
For `O=C1CCC(N2Cc3ccc(NCC(=O)NC4CCOCC4)cc3C2=O)C(=O)N1` (centres unmarked) [Compound C12693, 2-[[2-(2,6-dioxo-3-piperidyl)-3-oxo-isoindolin-5-yl]amino]-N-tetrahydropyran-4-yl-acetamide], the EC50 at SALL4 came out at 2.62 µM. Besides, the IC50 on CRBN turned out to be 8.33 µM.
Take `O=C1CCC(N2Cc3ccc(NCC(=O)NC4CCOC4)cc3C2=O)C(=O)N1` (centres unmarked) [Compound C12694, 2-[[2-(2,6-dioxo-3-piperidyl)-3-oxo-isoindolin-5-yl]amino]-N-tetrahydrofuran-3-yl-acetamide]: the EC50 at SALL4 was 3.43 µM.
Take `Cc1ccc2nnn(C3CCC(=O)NC3=O)c(=O)c2c1` (centres unmarked) [Compound C16463, 3-(6-methyl-4-oxo-1,2,3-benzotriazin-3-yl)piperidine-2,6-dione]: the EC50 on SALL4 was found to be 0.772 µM. Moreover, at CRBN, the IC50 worked out at 2.67 µM.
Turning to `Cc1ccc2c(=O)n(C3CCC(=O)NC3=O)nnc2c1` (centres unmarked) [Compound C17800, 3-(7-methyl-4-oxo-1,2,3-benzotriazin-3-yl)piperidine-2,6-dione], the EC50 at SALL4 was 0.904 µM. For the same molecule, on CRBN, the IC50 turned out to be 21.9 µM.
As for `O=C1CCC(n2nnc3ccccc3c2=O)C(=O)N1` (centres unmarked) [Compound C21223, 3-(4-oxo-1,2,3-benzotriazin-3-yl)piperidine-2,6-dione], the EC50 at SALL4 came out at 0.517 µM. At ASS1, the “EC50_ASS1 (M)” value is recorded as “>>”. The half-maximal inhibitory concentration (IC50) at CRBN was found to be 2.29 µM.
In the same order, the values of `COCC(=O)Nc1cccc2c1CN(C1CCC(=O)NC1=O)C2=O` (centres unmarked) [Compound C22564, N-[2-(2,6-dioxo-3-piperidyl)-1-oxo-isoindolin-4-yl]-2-methoxy-acetamide] are 0.873 µM, “>>” and 1.67 µM.
With `CN(C)CC(=O)Nc1cccc2c1CN(C1CCC(=O)NC1=O)C2=O` (centres unmarked) [Compound C22586, 2-(dimethylamino)-N-[2-(2,6-dioxo-3-piperidyl)-1-oxo-isoindolin-4-yl]acetamide], on SALL4, the EC50 is 1.14 µM. Further, on CRBN, the IC50 is 1.3 µM.
On to `CCOC(=O)Nc1cccc2c1CN(C1CCC(=O)NC1=O)C2=O` (centres unmarked) [Compound C22622, ethyl N-[2-(2,6-dioxo-3-piperidyl)-1-oxo-isoindolin-4-yl]carbamate], for which the EC50 on SALL4 was determined as 0.121 µM. Besides, on ASS1, the “EC50_ASS1 (M)” value is “>>”. Moreover, the half-maximal inhibitory concentration (IC50) at CRBN stood at 0.225 µM.
For `O=C1CCC(N2Cc3cccc(F)c3C2=O)C(=O)N1` (centres unmarked) [Compound C23066, 3-(7-fluoro-1-oxo-isoindolin-2-yl)piperidine-2,6-dione], in that order: 0.0882 µM, “>>” and 0.248 µM.
Take `Cc1ccc2c(c1)C(=O)N(C1CCC(=O)NC1=O)C2` (centres unmarked) [Compound C28620, 3-(6-methyl-1-oxo-isoindolin-2-yl)piperidine-2,6-dione]: the EC50 on SALL4 turned out to be 0.27 µM. For the same molecule, the half-maximal inhibitory concentration (IC50) at CRBN is 0.178 µM.
Turning to `O=C1CCC(N2Cc3ccc(O)cc3C2=O)C(=O)N1` (centres unmarked) [Compound C28928, 3-(6-hydroxy-1-oxo-isoindolin-2-yl)piperidine-2,6-dione], at ASS1, the “EC50_ASS1 (M)” value is listed as “>>”.
Regarding `CC(=O)Nc1ccc2c(c1)CN(C1CCC(=O)NC1=O)C2=O` (centres unmarked) [Compound C29361, N-[2-(2,6-dioxo-3-piperidyl)-1-oxo-isoindolin-5-yl]acetamide], at SALL4, the EC50 is 0.186 µM. Besides, the “EC50_ASS1 (M)” value at ASS1 is given as “>>”. The IC50 at CRBN came out at 1.43 µM.
Regarding `CC(=O)NC1c2ccccc2C(=O)N1C1CCC(=O)NC1=O` (centres unmarked) [Compound C33779, N-[2-(2,6-dioxo-3-piperidyl)-3-oxo-isoindolin-1-yl]acetamide], on SALL4, the EC50 worked out at 3.03 µM. The IC50 on CRBN was determined as 49.4 µM.
For `CC(=O)NCCNc1ccc2c(c1)CN(C1CCC(=O)NC1=O)C2=O` (centres unmarked) [Compound C35745, N-[2-[[2-(2,6-dioxo-3-piperidyl)-1-oxo-isoindolin-5-yl]amino]ethyl]acetamide], in that order: 2.63 µM and 11.2 µM.
For `O=C(O)CNc1cccc2c1C(=O)N(C1CCC(=O)NC1=O)C2` (centres unmarked) [Compound C47998, 2-[[2-(2,6-dioxo-3-piperidyl)-3-oxo-isoindolin-4-yl]amino]acetic acid], in that order: 2.17 µM and 6.59 µM.
In the same order, the values of `N#Cc1ccc2c(c1)CN(C1CCC(=O)NC1=O)C2=O` (centres unmarked) [Compound C48005, 2-(2,6-dioxo-3-piperidyl)-1-oxo-isoindoline-5-carbonitrile] are 0.595 µM and 1.73 µM.
With `O=C1CCC(N2Cc3cc(-c4ccccc4)ccc3C2=O)C(=O)N1` (centres unmarked) [Compound C48016, 3-(1-oxo-5-phenyl-isoindolin-2-yl)piperidine-2,6-dione], the EC50 at SALL4 stood at 0.122 µM. Also, at CRBN, the 50% inhibitory concentration (IC50) stood at 0.173 µM.
For `O=C1CCC(N2Cc3ccc(-c4ccccc4)cc3C2=O)C(=O)N1` (centres unmarked) [Compound C48018, 3-(1-oxo-6-phenyl-isoindolin-2-yl)piperidine-2,6-dione], in that order: 0.395 µM and 0.228 µM.
For the molecule `Cc1ccc(NC(=O)NCc2cc(C)c3c(c2)CN(C2CCC(=O)NC2=O)C3=O)cc1Cl` (centres unmarked) [Compound C58181, 1-(3-chloro-4-methyl-phenyl)-3-[[2-(2,6-dioxo-3-piperidyl)-7-methyl-1-oxo-isoindolin-5-yl]methyl]urea], at ASS1, the “EC50_ASS1 (M)” value was “>>”. Moreover, the concentration for half-maximal inhibition (IC50) on CRBN worked out at 0.0291 µM.
Consider `O=C1CCC(N2C(=O)C3=C(C2=O)c2ccccc2CC3)C(=O)N1` (centres unmarked) [Compound C64340, 2-(2,6-dioxo-3-piperidyl)-4,5-dihydrobenzo[e]isoindole-1,3-dione], for which the EC50 at SALL4 worked out at 1.49 µM. Moreover, the 50% inhibitory concentration (IC50) at CRBN amounted to 2500 µM.
Take `O=C1CCC(N2Cc3cc(Nc4ncccn4)ccc3C2=O)C(=O)N1` (centres unmarked) [Compound C80369, 3-[1-oxo-5-(pyrimidin-2-ylamino)isoindolin-2-yl]piperidine-2,6-dione]: the EC50 at ASS1 (read-out: EC50_ASS1) worked out at 1.29 µM. Further, on CRBN, the IC50 is 0.0415 µM.
As for `O=C1CCC(N2Cc3cc(Nc4ncnc5ccccc45)ccc3C2=O)C(=O)N1` (centres unmarked) [Compound C80373, 3-[1-oxo-5-(quinazolin-4-ylamino)isoindolin-2-yl]piperidine-2,6-dione], the “EC50_ASS1 (M)” value at ASS1 is reported as “>>”. Further, the IC50 at CRBN was determined as 0.892 µM.
For `O=C1CCC(N2Cc3cc(Nc4ncc5[nH]cnc5n4)ccc3C2=O)C(=O)N1` (centres unmarked) [Compound C80376, 3-[1-oxo-5-(7H-purin-2-ylamino)isoindolin-2-yl]piperidine-2,6-dione], the EC50 on SALL4 is 0.559 µM.
For `O=C1CCC(N2Cc3ccc(Nc4ncc5c(n4)COC5)cc3C2=O)C(=O)N1` (centres unmarked) [Compound C80391, 3-[6-(5,7-dihydrofuro[3,4-d]pyrimidin-2-ylamino)-1-oxo-isoindolin-2-yl]piperidine-2,6-dione], at SALL4, the EC50 worked out at 0.152 µM. Also, the IC50 on CRBN stood at 0.163 µM.
For `O=C1CCC(N2Cc3ccc(NC(=O)c4cnc5nccn5c4)cc3C2=O)C(=O)N1` (centres unmarked) [Compound C80396, N-[2-(2,6-dioxo-3-piperidyl)-3-oxo-isoindolin-5-yl]imidazo[1,2-a]pyrimidine-6-carboxamide], in that order: 1.38 µM and 2.63 µM.
For `CC(Nc1ccc2c(c1)C(=O)N(C1CCC(=O)NC1=O)C2)C(=O)O` (centres unmarked) [Compound C84970, 2-[[2-(2,6-dioxo-3-piperidyl)-3-oxo-isoindolin-5-yl]amino]propanoic acid], in that order: 1.01 µM and 1.42 µM.
For `O=C1CCC(N2Cc3ccccc3C2)C(=O)N1` (centres unmarked) [Compound C87699, 3-isoindolin-2-ylpiperidine-2,6-dione], in that order: 4.82 µM and 19.6 µM.
As to `O=C1CCC(N2C(=O)c3ccccc3C2=O)C(=O)N1` (centres unmarked) [THL, Thalidomide, reference compound], on ASS1, the “EC50_ASS1 (M)” value is “>>”.
